The values that follow come from US11013750B2, “Methods for treating and preventing nociceptive pain” (Aurin Biotech Inc., priority 2017, dated 2021).

The subject of assay [1] is SH-SY5Y human neuroblastoma cells. Put plainly: CH50 type analysis of inhibition of C3B cleavage, LDH release end point. Format: cell-based. The conditions noted are these: SH-SY5Y cells with undiluted human serum, 37° C. for 3 h, read-out: concentration to inhibit cell lysis by 50% (IC 50). The protocol: To investigate efficacy of DAS, ATA, AQA and AHA and to inhibit C3B cleavage in SH-SY5Y human neuroblastoma cells, a CH50 type analysis was performed. Lactate dehydrogenase (LDH) release from dead cells was the end point. Reaction mixtures were: SH-SY5Y cells (10^5 cells in 1 ml DMEM/F-12 medium), 250 μL of undiluted human serum and 250 μL of DAS (3 μM), ATA (5 μM), AQA (5 μM), or AHA (5 μM). Mixtures were incubated at 37° C. for 3 h. 100 μl of cell free reaction mixtures were transferred to 96 well plates where they were mixed with a solution containing 15 μl lactate (36 mg/ml in PBS) plus 15 μl p-iodonitrotetrazolium violet (INT, 2 mg/ml in PBS). The enzymatic reaction was started by the addition of 15 μl of NAD^+/diaphorase solution (3 mg/ml NAD^+; 2.3 mg solid/ml diaphorase). After 1 h, optical densities were measured with a Model 450 microplate reader (Bio-Rad Laboratories, Richmond, Calif.) using a 490-nm filter. The amount of LDH released was expressed as a percentage of the value obtained in comparative wells where cells were 100% lysed by 0.1% Triton X-100.
Cell lysis was concentration dependent for each of the components investigated.
(In general: LDH leaks from cells whose membrane has failed.)

For assay [2], the system named is C5a formation (C5 convertase). Description: Blockade of C5a formation, western blotting. The format is cell-based. The settings on record: SH-SY5Y cells, 10% human serum, zymosan 100 μg/ml, C1 inhibitor 5 μg/ml, 37° C. 1 h. The protocol:
To verify that each of the inhibitors was acting by inhibiting formation of C5 convertase, western blotting experiments were carried out. Results are shown in illustrated in FIG. 4. SH-SY5Y human neuroblastoma cells (2×10^5 cells in 1 ml DMEM/F-12 medium including 10% human serum) were incubated with zymosan (100 μg/ml) in 24 well plates at 37° C. for 1 h with or without DAS (3 μM), ATA (5 μM), AQA (5 μM), or AHA (5 μM). To inhibit any classical pathway activation, C1 inhibitor (5 μg/ml) was added. Supernatants were obtained by centrifugation at 4000 g for 30 min through 30 K-filters (Amicon® Ultra-15, 30,000 NMWL, Millipore, Billerica, Mass.). The filtrates were dried and added to the loading buffer for SDS-PAGE (50-mM Tris (pH 6.8), 0.1% SDS, 0.1% bromophenol blue, and 10% glycerol). Proteins were separated in 10% polyacrylamide gels at 70V for 6 h. The proteins were then transferred to polyvinylidene difluoride (PVDF) membranes (Bio-Rad, CA) at 30 mA for 2 hours. After washing with PBS-T, the membranes were treated with a mouse monoclonal C5/C5a antibody (Abcam, Cambridge Mass., 1/2000) for 15 hours at 4° C. The membranes were then treated with an appropriate HRP-conjugated anti-mouse IgG (A3682, 1/3,000; Sigma) for 3 hours at room temperature. The bands were visualized with an enhanced chemiluminescent system and exposure to photographic film (Hyperfilm ECL; Amersham Pharmacia Biotech, Little Chalfont, UK).
In general terms: In western blotting, separated proteins are transferred to a membrane and probed.

Take `O=C(O)C1=CC(=C(c2ccc(O)c(C(=O)O)c2)c2ccc(O)c(C(=O)O)c2)C=CC1=O` [ATA, aurin tricarboxylic acid]: the IC50 in assay [1] was 550 nM.
On to `CC(=O)Oc1ccc(Cc2ccc(OC(C)=O)c(C(=O)O)c2)cc1C(=O)O` [DAS, 5,5′-methylenebis(2-acetoxybenzoic) acid], for which, in assay [2] (3 μM), the “C5a formation (western blot)” value was “C5a was no longer formed”. For the same compound, the IC50 in assay [1] came to 109 nM.
As for aurin hexacarboxylic acid [AHA], the “C5a formation (western blot)” value in assay [2] (5 μM) is “C5a was no longer formed”. Also, the IC50 in assay [1] amounted to 534 nM.
In the same order, the values of aurin quadracarboxylic acid [AQA] are “C5a was no longer formed” and 522 nM.
